Reference: patent US11072581B2, “N-acyl-arylsulfonamide derivatives as aminoacyl-tRNA synthetase inhibitors” (Oxford Drug Design Limited, priority 2015, dated 2021)
Counter-ions that a name gives are not always drawn.

What was measured:
[1] = molecular target: T1, EcoLRS (leucyl-tRNA synthetase from Escherichia coli) (Escherichia coli, UniProt P07813); assay: aaRS aminoacylation assay (ATP consumption), EcoLRS; type: biochemical; details: for % at single point concentration (inhibition ratio), EcoLRS: @50 μM compound
T1 construct: made in house; host or cells: Escherichia coli M15
T1 sequence (P07813 whole entry): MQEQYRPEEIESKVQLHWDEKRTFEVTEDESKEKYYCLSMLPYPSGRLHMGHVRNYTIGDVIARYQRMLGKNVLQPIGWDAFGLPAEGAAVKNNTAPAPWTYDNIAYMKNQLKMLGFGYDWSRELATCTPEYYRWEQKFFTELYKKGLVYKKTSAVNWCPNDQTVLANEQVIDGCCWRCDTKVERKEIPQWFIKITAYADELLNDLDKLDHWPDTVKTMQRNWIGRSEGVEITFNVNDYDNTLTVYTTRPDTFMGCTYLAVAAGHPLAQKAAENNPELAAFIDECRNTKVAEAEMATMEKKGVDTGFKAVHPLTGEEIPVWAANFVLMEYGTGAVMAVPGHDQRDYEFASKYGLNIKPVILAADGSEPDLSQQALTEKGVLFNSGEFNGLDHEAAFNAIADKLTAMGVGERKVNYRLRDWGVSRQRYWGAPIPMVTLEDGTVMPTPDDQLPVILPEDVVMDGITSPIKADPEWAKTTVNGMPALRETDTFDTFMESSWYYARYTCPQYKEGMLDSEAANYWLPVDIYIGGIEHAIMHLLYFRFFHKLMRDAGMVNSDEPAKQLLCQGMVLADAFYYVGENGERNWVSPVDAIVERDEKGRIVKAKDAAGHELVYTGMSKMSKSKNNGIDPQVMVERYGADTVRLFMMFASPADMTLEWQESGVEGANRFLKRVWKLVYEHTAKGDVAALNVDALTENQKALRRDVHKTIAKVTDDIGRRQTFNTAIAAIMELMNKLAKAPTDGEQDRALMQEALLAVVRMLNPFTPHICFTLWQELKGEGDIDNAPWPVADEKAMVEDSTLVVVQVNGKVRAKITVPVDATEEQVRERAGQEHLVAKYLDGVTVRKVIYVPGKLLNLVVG
Protocol: (§1) The compounds have been tested for antibacterial activity in vitro as aminoacyl-tRNA synthetases (aaRS) inhibitors following the following process.
(§2) Leucyl-, valyl- and isoleucyl-tRNA synthetases (LRS, VRS and IRS, respectively) from Escherichia coli (Eco) and Staphylococcus aureus (Sau).
(§3) Escherichia coli M15 cells transformed with plasmid pQE-60, or pQE-70, containing the open-reading frame sequence of one targeted aaRS were induced with 1 mM IPTG (Isopropyl β-D-1-thiogalactopyranoside) for 3 h at 37° C. Bacterial cells were harvested and lysed with 20 mM NaH2PO4 (pH 8.0), 200 mM NaCl, 10 mM imidazole and protease inhibitor cocktail (Roche). Pathogenic aaRS was purified by nickel affinity standard chromatography. Protein concentration was determined by spectrophotometry.
(§4) tRNA^Leu, tRNA^Val and tRNA^Ile from E. coli and S. aureus were transcribed in vitro for 4 h at 37° C. using T7 RNA polymerase. Transcription reaction contained 40 mM Tris-HCl (pH 8.0), 22 mM MgCl2, 1 mM spermidine, 5 mM DTT, 0.01% Triton X-100, 4 mM GTP, 4 mM ATP, 4 mM UTP, 4 mM CTP, 16 mM GMP, […] T7 RNA polymerase and 150 μg BstNI digested plasmid. Once finished, the reaction was applied on a 6% polyacrylamide-8 M urea denaturing gel to purify the transcribed tRNA and discard any impurities. Purified tRNA was quantified with Nanodrop 2000 (Thermo Scientific).
(§5) The aminoacylation reaction catalyzed by aminoacyl-tRNA synthetases (aaRS) takes place in two steps. In the first step, aaRS activates its cognate amino acid with ATP; and in the second step the activated amino acid is loaded to its corresponding tRNA. This reaction can be summarized as follows: ARS+aa+ATP=ARS-aa-AMP+PPi ARS-aa-AMP+tRNA=aa-tRNA+AMP+ARS [2] (ARS, Aminoacyl-tRNA synthetase; aa, amino acid; ARS-aa-AMP, enzyme-bound to aminoacyl-adenylate; aa-tRNA, aminoacyl-tRNA).
(§6) The activity of the pathogenic aaRSs was monitored by measuring the ATP consumption rate, since this consumption is directly proportional to the activity of the aaRS. If the tested compound, at a single point concentration of 50 μM, is inhibiting the aminoacylation reaction, there is a decrease in the ATP consumption, compared to the control reaction without compound, allowing the calculation of an inhibition ratio.
(§7) When the inhibition ratio for a given compound was above 80%, IC50 determination was performed with the same enzymatic assay (using the commercial kit Kinase RR from BioThema AB, Sweden) in the presence of serial dilutions of inhibitor. Known inhibitors of LRS, VRS or IRS were used as a positive control of the assay. The IC50 was calculated based on nonlinear regression analysis.

[2] = molecular target: T2, EcoVRS (valyl-tRNA synthetase from Escherichia coli) (Escherichia coli, UniProt P07118); assay: aaRS aminoacylation assay (ATP consumption), EcoVRS; type: biochemical; details: i.a. = inactive at a concentration below 50 uM
T2 construct: made in house; host or cells: Escherichia coli M15
T2 sequence (P07118 whole entry): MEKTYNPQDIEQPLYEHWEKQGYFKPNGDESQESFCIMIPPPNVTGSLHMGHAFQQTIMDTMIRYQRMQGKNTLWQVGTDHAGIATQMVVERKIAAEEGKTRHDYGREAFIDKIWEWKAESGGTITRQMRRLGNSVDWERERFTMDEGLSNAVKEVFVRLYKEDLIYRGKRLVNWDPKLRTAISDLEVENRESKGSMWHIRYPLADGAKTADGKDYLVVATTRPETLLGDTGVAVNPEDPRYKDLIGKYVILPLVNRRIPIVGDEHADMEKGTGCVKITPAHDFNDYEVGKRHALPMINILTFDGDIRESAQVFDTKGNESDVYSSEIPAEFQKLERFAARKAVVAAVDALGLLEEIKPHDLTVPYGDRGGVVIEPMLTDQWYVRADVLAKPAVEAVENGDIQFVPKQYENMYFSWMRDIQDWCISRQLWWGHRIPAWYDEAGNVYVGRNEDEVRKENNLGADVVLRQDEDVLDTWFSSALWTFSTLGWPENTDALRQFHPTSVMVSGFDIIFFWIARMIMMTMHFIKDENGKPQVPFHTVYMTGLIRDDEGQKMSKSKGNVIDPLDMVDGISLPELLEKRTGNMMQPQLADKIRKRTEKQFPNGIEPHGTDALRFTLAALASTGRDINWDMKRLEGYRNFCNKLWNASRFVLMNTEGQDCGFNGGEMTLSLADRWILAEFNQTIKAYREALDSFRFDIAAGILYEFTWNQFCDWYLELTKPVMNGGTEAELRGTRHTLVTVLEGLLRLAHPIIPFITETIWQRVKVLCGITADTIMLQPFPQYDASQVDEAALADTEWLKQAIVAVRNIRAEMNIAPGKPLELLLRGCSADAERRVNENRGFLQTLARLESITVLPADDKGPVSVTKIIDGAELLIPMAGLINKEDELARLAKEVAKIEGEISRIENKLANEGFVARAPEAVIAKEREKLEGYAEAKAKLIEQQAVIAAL
Protocol: as §1, §2, §3, §4, §5, §6, §7

[3] = molecular target: T3, SauVRS (valyl-tRNA synthetase from Staphylococcus aureus) (Staphylococcus aureus, UniProt Q2FXR8); assay: aaRS aminoacylation assay (ATP consumption), SauVRS; type: biochemical; details: i.a. = inactive at a concentration below 50 uM
T3 construct: made in house; host or cells: Escherichia coli M15
T3 sequence (Q2FXR8 1-876): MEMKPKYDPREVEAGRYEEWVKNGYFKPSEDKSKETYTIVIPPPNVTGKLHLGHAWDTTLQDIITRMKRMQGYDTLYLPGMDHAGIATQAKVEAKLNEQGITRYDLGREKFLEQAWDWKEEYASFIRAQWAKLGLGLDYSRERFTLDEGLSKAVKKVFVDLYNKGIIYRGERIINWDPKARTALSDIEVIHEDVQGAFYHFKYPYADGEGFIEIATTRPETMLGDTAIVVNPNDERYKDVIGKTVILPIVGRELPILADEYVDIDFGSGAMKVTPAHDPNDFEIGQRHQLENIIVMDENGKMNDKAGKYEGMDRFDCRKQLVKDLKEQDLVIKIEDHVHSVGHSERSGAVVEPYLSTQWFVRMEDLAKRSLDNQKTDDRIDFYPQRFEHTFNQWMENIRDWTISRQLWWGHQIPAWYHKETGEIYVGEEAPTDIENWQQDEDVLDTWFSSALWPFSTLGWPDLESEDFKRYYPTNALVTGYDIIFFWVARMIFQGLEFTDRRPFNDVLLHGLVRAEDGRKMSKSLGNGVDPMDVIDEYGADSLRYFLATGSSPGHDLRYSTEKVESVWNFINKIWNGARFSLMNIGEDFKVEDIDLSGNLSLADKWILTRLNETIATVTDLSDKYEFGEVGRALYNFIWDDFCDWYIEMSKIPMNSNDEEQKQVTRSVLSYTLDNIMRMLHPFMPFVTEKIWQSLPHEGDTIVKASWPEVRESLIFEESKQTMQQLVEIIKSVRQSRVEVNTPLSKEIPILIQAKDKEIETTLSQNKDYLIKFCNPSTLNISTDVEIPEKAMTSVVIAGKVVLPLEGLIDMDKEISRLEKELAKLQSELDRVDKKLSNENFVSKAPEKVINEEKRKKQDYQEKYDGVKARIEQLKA
Protocol: as §1, §2, §3, §4, §5, §6, §7

[4] = molecular target: T4, SauLRS (leucyl-tRNA synthetase from Staphylococcus aureus) (Staphylococcus aureus, UniProt Q2FXH2); assay: aaRS aminoacylation assay (ATP consumption), SauLRS; type: biochemical; details: i.a. = inactive at a concentration below 50 uM
T4 construct: made in house; host or cells: Escherichia coli M15
T4 sequence (Q2FXH2 1-805): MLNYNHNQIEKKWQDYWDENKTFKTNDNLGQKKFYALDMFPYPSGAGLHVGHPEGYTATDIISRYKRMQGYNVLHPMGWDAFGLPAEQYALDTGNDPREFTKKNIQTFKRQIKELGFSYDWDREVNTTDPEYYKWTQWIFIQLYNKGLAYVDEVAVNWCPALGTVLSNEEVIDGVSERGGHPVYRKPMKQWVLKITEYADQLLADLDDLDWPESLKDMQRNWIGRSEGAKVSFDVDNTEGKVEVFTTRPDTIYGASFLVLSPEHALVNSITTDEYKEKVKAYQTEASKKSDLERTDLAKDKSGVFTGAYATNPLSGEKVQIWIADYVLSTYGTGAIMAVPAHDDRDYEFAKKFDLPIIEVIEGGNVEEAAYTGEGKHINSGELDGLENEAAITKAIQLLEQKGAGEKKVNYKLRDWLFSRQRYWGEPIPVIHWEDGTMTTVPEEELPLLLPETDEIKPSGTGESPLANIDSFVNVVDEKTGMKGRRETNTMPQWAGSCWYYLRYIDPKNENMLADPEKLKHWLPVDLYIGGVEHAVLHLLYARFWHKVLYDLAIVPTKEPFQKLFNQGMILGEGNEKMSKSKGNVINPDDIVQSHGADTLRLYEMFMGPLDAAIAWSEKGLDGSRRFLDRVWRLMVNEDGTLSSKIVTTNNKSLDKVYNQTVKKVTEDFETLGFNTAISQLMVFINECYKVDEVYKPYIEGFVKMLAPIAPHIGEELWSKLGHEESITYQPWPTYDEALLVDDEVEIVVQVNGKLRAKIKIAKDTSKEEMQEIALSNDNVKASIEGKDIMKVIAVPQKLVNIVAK
Protocol: as §1, §2, §3, §4, §5, §6, §7

[5] = molecular target: T5, EcoIRS (isoleucyl-tRNA synthetase from Escherichia coli) (Escherichia coli, UniProt P00956); assay: aaRS aminoacylation assay (ATP consumption), EcoIRS; type: biochemical; details: i.a. = inactive at a concentration below 50 uM
T5 construct: made in house; host or cells: Escherichia coli M15
T5 sequence (P00956 whole entry): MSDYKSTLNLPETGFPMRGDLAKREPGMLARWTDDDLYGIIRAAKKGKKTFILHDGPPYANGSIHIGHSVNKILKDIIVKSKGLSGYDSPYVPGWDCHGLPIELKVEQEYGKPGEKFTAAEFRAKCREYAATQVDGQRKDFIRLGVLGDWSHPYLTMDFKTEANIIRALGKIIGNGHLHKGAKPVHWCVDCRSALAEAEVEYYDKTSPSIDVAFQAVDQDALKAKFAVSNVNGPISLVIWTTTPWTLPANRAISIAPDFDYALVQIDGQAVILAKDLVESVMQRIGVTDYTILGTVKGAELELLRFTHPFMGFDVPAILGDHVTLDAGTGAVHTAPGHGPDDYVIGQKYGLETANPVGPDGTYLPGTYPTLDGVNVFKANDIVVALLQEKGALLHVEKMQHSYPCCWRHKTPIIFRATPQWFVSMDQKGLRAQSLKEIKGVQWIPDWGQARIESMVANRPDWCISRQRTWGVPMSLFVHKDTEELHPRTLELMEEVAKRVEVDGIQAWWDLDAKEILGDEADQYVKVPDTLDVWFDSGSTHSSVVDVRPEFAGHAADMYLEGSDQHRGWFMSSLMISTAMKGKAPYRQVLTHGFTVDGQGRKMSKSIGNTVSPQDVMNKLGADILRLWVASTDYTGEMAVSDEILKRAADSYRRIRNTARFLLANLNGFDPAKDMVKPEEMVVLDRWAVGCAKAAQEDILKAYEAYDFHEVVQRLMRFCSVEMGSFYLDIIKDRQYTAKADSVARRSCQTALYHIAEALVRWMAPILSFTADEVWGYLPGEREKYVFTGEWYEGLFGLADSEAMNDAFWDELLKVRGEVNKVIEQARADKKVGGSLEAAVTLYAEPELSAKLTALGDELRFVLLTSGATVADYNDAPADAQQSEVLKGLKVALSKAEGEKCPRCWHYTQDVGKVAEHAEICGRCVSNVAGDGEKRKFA
Protocol: as §1, §2, §3, §4, §5, §6, §7

Compound | melting point [°C] | also measured
CC(C)C[C@H](N)C(=O)NS(=O)(=O)c1ccc(O)c2ccccc12 [Compound 5.23] | 250 to 252 | –
CC(C)C[C@H](N)C(=O)NS(=O)(=O)c1ccc(Br)c2ccncc12 (as salt: trifluoroacetate) [Compound 5.22] | 137 to 139 | –
CC(C)C[C@H](N)C(=O)NS(=O)(=O)c1cccc(-c2cc(OC(C)C)nc(N)n2)c1 [Compound 5.51] | – | % at single point concentration (inhibition ratio), EcoLRS [1]: 102%@50 μM
CC(C)C[C@H](N)C(=O)NS(=O)(=O)c1ccccn1 [Compound 5.20] | 203 to 205 | –
CC(C)C[C@H](N)C(=O)NS(=O)(=O)c1cccc(-c2cc(Oc3ccccc3)nc(N)n2)c1 [Compound 5.52] | – | % at single point concentration (inhibition ratio), EcoLRS [1]: 104%@50 μM
CC(C)C[C@H](N)C(=O)NS(=O)(=O)c1ccc(F)cc1 [Compound 5.8] | 235 to 236 | –
CC(C)C[C@H](N)C(=O)NS(=O)(=O)c1cccc2c1CNCC2 (as salt: trifluoroacetate) [Compound 5.26, (S)-2-amino-4-methyl-N-((1,2,3,4-tetrahydroisoquinolin-8-yl)sulfonyl) pentanamide trifluoroacetate] | 90 to 92 | –
Cc1cc(-c2cccc(S(=O)(=O)NC(=O)[C@@H](N)C3CCCCC3)c2)nc(N)n1 [Compound 5.32] | – | IC50 EcoVRS [2]: i.a; IC50 SauVRS [3]: i.a; IC50 SauLRS [4]: i.a; IC50 [1]: 38 µM; IC50 EcoIRS [5]: i.a
CC(C)C[C@H](N)C(=O)NS(=O)(=O)c1cccc2c(N(C)C)cccc12 (as salt: hydrochloride) [Compound 5.16, (S)-2-amino-N-((5-(dimethylamino)naphthalen-1-yl)sulfonyl)-4-methylpentanamide hydrochloride] | 178 to 180 | –
COc1ccc(S(=O)(=O)NC(=O)[C@@H](N)CC(C)C)c2ccccc12 [Compound 5.18] | 253 to 255 | –
CC(C)C[C@H](N)C(=O)NS(=O)(=O)c1cccc2cc(C(N)=O)ncc12 (as salt: salt) [Compound 5.24, 8-(N-(L-Leucyl)sulfamoyl)isoquinoline-3-carboxamide] | 222.9 | –
